For data set [1], the system named is primary chicken neurons. Put plainly: MTT cell viability assay on primary chicken neurons, components applied for forty-eight hours. Format: cell-based. Conditions: for effect on cell viability: 48 h. The method, then: Further tests were conducted to assess the neuroprotective effects of a number of the components previously disclosed herein at various concentrations on primary chicken neurons, individually and in select combinations. The study components were applied to test specimens obtained on embryonic day 8 in vitro (“DIV8”) for a period of forty-eight hours, after which, the test specimens were evaluated in accordance with MTT assay to determine cell viability.
One day old fertilized eggs were stored under appropriate conditions until the start of breeding. On embryonic day zero, eggs were transferred to a breeding incubator and maintained under turning at 37.8° C. and 55% humidity until embryonic day eight.
All cell culture experiments were carried out under sterile conditions and all procedures were performed in a cell culture unit with special cell culture equipment. Glassware, forceps ad/or scissors were sterilized prior to experiments. Stock chemical solutions were obtained sterile, and final solution and culture medium were prepared fresh in a laminar airflow cabinet.
Neurons were prepared as follows. DIV8 embryos were transferred to plastic dish and decapitated. Bother hemispheres were removed, collected, and cleaned from any loose tissue. Hemispheres were then mechanically disassociated and 4.8×10^4 cells per well in a 96-well plate, and each well was seeded with 160 μL.
The cell culture medium for chicken telencephalon neurons consists of DMEM with 4.5 grams glucose, 5% Nu Serum, 0.01% gentamycin, and 2 mM L-glutamine. Cultures are maintained at 37° C., 95% humidity and 5% CO2.
The study component(s) and vehicle controls (“VC”) were applied to chicken neurons at DIVE for forty-eight hours. The viability of the chicken neurons at DIV10 were determined according to an MTT cell viability assay.
MTT Cell Viability Assay: The viability of the chicken neurons were determined by MTT assay using a plate reader at 570 nanometers as described in SOP MET004. The assay measures the mitochondrial dehydrogenase activity which reduces yellow MTT to dark blue formazan crystals. As the reaction is catalyzed only in living cells, the assay is used to determine cell viability. MTT is added to each well at a concentration of 0.5 milligrams per milliliter. After two hours, the MTT containing medium is aspirated. Cells are lysed in 3% SDS and the formazan crystals are dissolved in isopropanol/hydrochloric acid. Optical density is measured with a plate-reader at a wavelength of 570 nanometers.
Cell survival rate is expressed as optical density, and values are calculated as a percentage of the vehicle control values, the vehicle control being 100%.
Background: Formazan colour is commonly taken as a measure of viable cells.

The conditions of data set [2]: cited from earlier work.

With `COc1cc(/C=C/C(=O)CC(=O)/C=C/c2ccc(O)c(OC)c2)ccc1O` [Curcumin, curcumin], the “protective effects, curcumin alone vs in combination with MSM/FDP” value in data set [1] (Part 3, curcumin applied alone) was “protective effects only in combinations with MSM/FDP but not when applied alone”. Also, the “effect on cell viability” value in data set [1] (curcumin 50, 20, 10 and 5 μM, vs vehicle) is “negative effects on cell viability”; in data set [1] (curcumin lowest concentration 0.01 μM, vs vehicle) it was “positive influence on cell viability”.

As to `C[S+](C)[O-]` [DMSO, Dimethyl sulfoxide], in data set [2], the “DMSO converted to MSM in the body” value is “approximately 15%”. In addition, the “effect on cell viability” value was “toxic effects” in data set [1] (DMSO 5%, vs vehicle treated cells) and “minor negative effect on cell viability” in data set [1] (DMSO, all other concentrations tested, vs vehicle treated cells).

With `O=C(COP(=O)(O)O)[C@@H](O)[C@H](O)[C@H](O)COP(=O)(O)O` [FDP, Fructose 1,6-diphosphate], the “effect on cell viability” value in data set [1] (FDP highest concentrations 50, 10 and 5 mM) is given as “toxic effects”; in data set [1] (FDP, other applied concentrations) it was “no significant effects”.

Regarding `CS(C)(=O)=O` [MSM, Methylsulfonylmethane], the “concentration of MSM relative to DMSO achieving the same effects on cell viability” value in data set [1] (MSM 0.1 μM vs DMSO 12.8 μM in combinations) amounted to 128 times less concentrated. Further, the “effects on cell viability in the combinations, MSM vs DMSO” value in data set [1] (MSM 0.0001 mM = 0.1 μM vs DMSO 12.8 μM = 0.0001%) is recorded as “same effects on cell viability”. Further, the “effect on cell viability” value in data set [1] (MSM highest concentration 50 mM) was “minor negative effect”; in data set [1] (MSM, all other applied concentrations, increase seen at 1 and 0.01 mM), “no or even a slight increase in cell viability”. Moreover, the “tolerance by cells when applied alone” value in data set [1] (MSM vs DMSO, each applied alone) was “tolerated MSM better than DMSO”.

For the molecule `Oc1ccc(C=Cc2cc(O)cc(O)c2)cc1` [Resveratrol, resveratrol], the “effect on cell viability” value in data set [1] (resveratrol 20, 10 and 5 μM, vs vehicle) was “positive effects on cell viability”; in data set [1] (resveratrol 50 and 100 μM, vs vehicle), “toxic to cells”. In addition, the “cell viability compared to resveratrol (20 μM) plus DMSO/FDP” value in data set [1] (resveratrol alone 20 μM) is listed as “even better effects on cell viability”.

Values taken from patent US10166267B1, “Multi-component formulations for the treatment of cognitive decline including Alzheimer's disease” (priority 2010, dated 2019).
